#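 Five concentrations, 48 hours, 96-well plates. At the GI50, growth is halved. TGI: total growth inhibition.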
# Columns and labels:
# Experiment in all cases: growth of human tumour cells (NCI), 48 h
# A549 NSCLC = tested on: A549 NSCLC
# LOX IMVI melanoma = tested on: LOX IMVI melanoma
# MALME-3M melanoma = tested on: MALME-3M melanoma
# SR leukemia = tested on: SR leukemia
# HT29 colon = tested on: HT29 colon
# OVCAR-3 ovarian = tested on: OVCAR-3 ovarian
# SF-295 CNS = tested on: SF-295 CNS
# UACC-257 melanoma = tested on: UACC-257 melanoma
# BT-549 breast = tested on: BT-549 breast
# NCI-H460 lung = tested on: NCI-H460 lung
# UO-31 renal = tested on: UO-31 renal
# TK-10 renal = tested on: TK-10 renal
# OVCAR-8 ovarian = tested on: OVCAR-8 ovarian
# SF-539 CNS = tested on: SF-539 CNS
# SN12C renal = tested on: SN12C renal
# SNB-75 CNS = tested on: SNB-75 CNS
# MDA-MB-231 breast = tested on: MDA-MB-231 breast
# SF-268 CNS = tested on: SF-268 CNS
# CAKI-1 renal = tested on: CAKI-1 renal
# HOP-62 NSCLC = tested on: HOP-62 NSCLC
# NCI-H522 lung = tested on: NCI-H522 lung
# COLO 205 colon = tested on: COLO 205 colon
# OVCAR-4 ovarian = tested on: OVCAR-4 ovarian
# SW-620 colon = tested on: SW-620 colon
# SNB-19 CNS = tested on: SNB-19 CNS
# HL-60(TB) leukemia = tested on: HL-60(TB) leukemia
# MOLT-4 leukemia = tested on: MOLT-4 leukemia
# IGROV1 ovarian = tested on: IGROV1 ovarian
# 786-0 renal = tested on: 786-0 renal
# HOP-92 NSCLC = tested on: HOP-92 NSCLC
# HS 578T breast = tested on: HS 578T breast
# M14 melanoma = tested on: M14 melanoma
# KM12 colon = tested on: KM12 colon
# MCF7 breast = tested on: MCF7 breast
# MDA-MB-435 = tested on: MDA-MB-435
# RXF 393 renal = tested on: RXF 393 renal
# NCI/ADR-RES ovarian = tested on: NCI/ADR-RES ovarian
# RPMI-8226 leukemia = tested on: RPMI-8226 leukemia
# T-47D breast = tested on: T-47D breast
# SK-OV-3 ovarian = tested on: SK-OV-3 ovarian
# NCI-H226 lung = tested on: NCI-H226 lung
# SK-MEL-2 melanoma = tested on: SK-MEL-2 melanoma
# HCT-116 colon = tested on: HCT-116 colon
# A498 renal = tested on: A498 renal
# PC-3 prostate = tested on: PC-3 prostate
# NCI-H23 lung = tested on: NCI-H23 lung
# ACHN renal = tested on: ACHN renal
# CCRF-CEM leukemia = tested on: CCRF-CEM leukemia
# UACC-62 melanoma = tested on: UACC-62 melanoma
# K-562 leukemia = tested on: K-562 leukemia
# U251 CNS = tested on: U251 CNS
# DU-145 prostate = tested on: DU-145 prostate
# OVCAR-5 ovarian = tested on: OVCAR-5 ovarian
# HCC-2998 colon = tested on: HCC-2998 colon
# SK-MEL-28 melanoma = tested on: SK-MEL-28 melanoma
# HCT-15 colon = tested on: HCT-15 colon
# SK-MEL-5 melanoma = tested on: SK-MEL-5 melanoma
structure (smiles),measurement,setting,value
N#CC1=C(N)NC(=O)NC12Nc1ccccc1S2 (stereo not drawn),GI50,A549 NSCLC,4.27 µM
same,TGI,A549 NSCLC,> 40.4 µM
same,GI50,LOX IMVI melanoma,22.9 µM
same,TGI,LOX IMVI melanoma,> 59.2 µM
same,GI50,MALME-3M melanoma,4.63 µM
same,TGI,MALME-3M melanoma,42.5 µM
same,GI50,SR leukemia,10.4 µM
same,TGI,SR leukemia,> 100 µM
same,GI50,HT29 colon,36.7 µM
same,TGI,HT29 colon,> 100 µM
same,GI50,OVCAR-3 ovarian,26.8 µM
same,TGI,OVCAR-3 ovarian,> 59.9 µM
same,GI50,SF-295 CNS,26.4 µM
same,TGI,SF-295 CNS,> 65.7 µM
same,GI50,UACC-257 melanoma,1.42 µM
same,GI50,BT-549 breast,24.2 µM
same,TGI,BT-549 breast,93.6 µM
same,GI50,NCI-H460 lung,23.6 µM
same,TGI,NCI-H460 lung,> 70.9 µM
same,GI50,UO-31 renal,36.2 µM
same,TGI,UO-31 renal,> 100 µM
same,GI50,TK-10 renal,26.1 µM
same,TGI,TK-10 renal,66 µM
same,GI50,OVCAR-8 ovarian,6.07 µM
same,TGI,OVCAR-8 ovarian,> 37.8 µM
same,GI50,SF-539 CNS,20.8 µM
same,TGI,SF-539 CNS,> 54.9 µM
same,GI50,SN12C renal,17.6 µM
same,TGI,SN12C renal,50.8 µM
same,GI50,SNB-75 CNS,51 µM
same,TGI,SNB-75 CNS,> 100 µM
same,GI50,MDA-MB-231 breast,10.4 µM
same,TGI,MDA-MB-231 breast,31.2 µM
same,GI50,SF-268 CNS,23.6 µM
same,TGI,SF-268 CNS,70.8 µM
same,GI50,CAKI-1 renal,30.1 µM
same,TGI,CAKI-1 renal,> 72.6 µM
same,GI50,HOP-62 NSCLC,23.1 µM
same,TGI,HOP-62 NSCLC,56.7 µM
same,GI50,NCI-H522 lung,28.2 µM
same,TGI,NCI-H522 lung,> 71.4 µM
same,GI50,COLO 205 colon,15.8 µM
same,TGI,COLO 205 colon,> 73.1 µM
same,GI50,OVCAR-4 ovarian,43.4 µM
same,TGI,OVCAR-4 ovarian,> 100 µM
same,GI50,SW-620 colon,28.8 µM
same,TGI,SW-620 colon,> 72.6 µM
same,GI50,SNB-19 CNS,44.5 µM
same,TGI,SNB-19 CNS,> 100 µM
same,GI50,HL-60(TB) leukemia,34.5 µM
same,TGI,HL-60(TB) leukemia,> 100 µM
same,GI50,MOLT-4 leukemia,> 48.3 µM
same,TGI,MOLT-4 leukemia,> 100 µM
same,GI50,IGROV1 ovarian,> 45.7 µM
same,TGI,IGROV1 ovarian,> 74.8 µM
same,GI50,786-0 renal,19.4 µM
same,TGI,786-0 renal,49.6 µM
same,GI50,HOP-92 NSCLC,91.3 µM
same,TGI,HOP-92 NSCLC,> 100 µM
same,GI50,HS 578T breast,25.5 µM
same,TGI,HS 578T breast,> 70.4 µM
same,GI50,M14 melanoma,19.7 µM
same,TGI,M14 melanoma,42.5 µM
same,GI50,KM12 colon,26.5 µM
same,TGI,KM12 colon,> 68.4 µM
same,GI50,MCF7 breast,24.6 µM
same,TGI,MCF7 breast,> 73.5 µM
same,GI50,MDA-MB-435,31.7 µM
same,TGI,MDA-MB-435,> 88.4 µM
same,GI50,RXF 393 renal,16.9 µM
same,TGI,RXF 393 renal,> 52.7 µM
same,GI50,NCI/ADR-RES ovarian,24.7 µM
same,TGI,NCI/ADR-RES ovarian,> 68.8 µM
same,GI50,RPMI-8226 leukemia,> 37 µM
same,TGI,RPMI-8226 leukemia,> 55.7 µM
same,GI50,T-47D breast,26.7 µM
same,TGI,T-47D breast,> 100 µM
same,GI50,SK-OV-3 ovarian,30.3 µM
same,TGI,SK-OV-3 ovarian,> 70.7 µM
same,GI50,NCI-H226 lung,14.4 µM
same,TGI,NCI-H226 lung,36.9 µM
same,GI50,SK-MEL-2 melanoma,> 44.4 µM
same,TGI,SK-MEL-2 melanoma,> 64.2 µM
same,GI50,HCT-116 colon,18.5 µM
same,TGI,HCT-116 colon,44 µM
same,GI50,A498 renal,16.5 µM
same,TGI,A498 renal,36.8 µM
same,GI50,PC-3 prostate,28 µM
same,TGI,PC-3 prostate,> 57.9 µM
same,GI50,NCI-H23 lung,19.3 µM
same,TGI,NCI-H23 lung,47.7 µM
same,GI50,ACHN renal,32.2 µM
same,TGI,ACHN renal,> 100 µM
same,GI50,CCRF-CEM leukemia,> 42 µM
same,TGI,CCRF-CEM leukemia,> 67.6 µM
same,GI50,UACC-62 melanoma,14.7 µM
same,TGI,UACC-62 melanoma,36.4 µM
same,GI50,K-562 leukemia,31.8 µM
same,TGI,K-562 leukemia,> 93 µM
same,GI50,U251 CNS,21.4 µM
same,TGI,U251 CNS,> 55 µM
same,GI50,DU-145 prostate,12.5 µM
same,TGI,DU-145 prostate,35.3 µM
same,GI50,OVCAR-5 ovarian,27 µM
same,TGI,OVCAR-5 ovarian,> 72.3 µM
same,GI50,HCC-2998 colon,35.5 µM
same,TGI,HCC-2998 colon,> 100 µM
same,GI50,SK-MEL-28 melanoma,26.7 µM
same,TGI,SK-MEL-28 melanoma,> 70.3 µM
same,GI50,HCT-15 colon,26.7 µM
same,TGI,HCT-15 colon,87 µM
same,GI50,SK-MEL-5 melanoma,17.5 µM
same,TGI,SK-MEL-5 melanoma,33.2 µM
